According to patent US8586611B2 (priority 2005, dated 2013):

Assays:
Type in all cases: in vivo
[1] = tested on: Pseudoperonospora cubensis; experiment: Test F: cucumber downy mildew, DMSO/acetone/water test suspension, spray the day before inoculation (disease rating, 100 = 100% disease control); conditions: DMSO/acetone/water suspension, spray the day before inoculation, compounds without asterisk
Method in brief: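 Compounds in DMSO (4% of final volume) suspended in 30/70 acetone/water and sprayed on cucumber seedlings; 250 ppm corresponds to 250 g/ha. Spore inoculation the next day, 24 h saturated humidity at 20° C., then 6 days at 20° C. Rating 0–100 is disease control relative to controls.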

[2] = tested on: Pseudoperonospora cubensis; experiment: Test A: cucumber downy mildew, spray the day before inoculation (disease rating, 100 = 100% disease control); conditions: spray the day before inoculation, compounds without asterisk (not 40 or 10 ppm)
Description: The test compounds were first dissolved in acetone in an amount equal to 3% of the final volume and then suspended at the desired concentration (in ppm) in acetone and purified water (50/50 mix by volume) containing 250 ppm of the surfactant Trem® 014 (polyhydric alcohol esters). The resulting test suspensions were then used in tests A-E. Spraying a 200 ppm test suspension to the point of run-off on the test plants was the equivalent of a rate of 500 g/ha.
The test suspension was sprayed to the point of run-off on cucumber seedlings. The following day the seedlings were inoculated with a spore suspension of Pseudoperonospora cubensis (the causal agent of cucumber downy mildew) and incubated in a saturated atmosphere at 20° C. for 24 h, and then moved to a growth chamber at 20° C. for 6 days, after which disease ratings were made.
Results for Tests A-F are given in Table A. In the table, a rating of 100 indicates 100% disease control and a rating of 0 indicates no disease control (relative to the controls). A dash (-) indicates no test results.

Phytophthora infestans [3] = experiment: whole plant or invertebrate; conditions: tomato late blight, spray the day before inoculation
Plasmopara viticola = experiment: Test B: grape downy mildew, spray 24 h after inoculation (disease rating, 100 = 100% disease control); conditions: spray 24 h after inoculation
Method in brief: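 Grape seedlings were inoculated with Plasmopara viticola and held 24 h saturated at 20 °C, then sprayed to run-off with compound suspension (acetone/water with 250 ppm Trem 014; 200 ppm ≈ 500 g/ha). After 5 days at 20 °C and 24 h saturation, disease was rated from 0 to 100% control versus untreated.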

[4] = tested on: Erysiphe graminis f. sp. tritici; experiment: Test E: wheat powdery mildew, spray the day before inoculation (disease rating, 100 = 100% disease control); conditions: spray the day before inoculation
Method in brief: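 Wheat seedlings sprayed to run-off with compound suspended in acetone/water 50/50 with 250 ppm Trem 014 (200 ppm equivalent to 500 g/ha); inoculated next day with Erysiphe graminis f. sp. tritici spore dust. Kept 7 days at 20° C, then rated 0–100% disease control versus controls.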

Phytophthora infestans [5] = experiment: whole plant or invertebrate; conditions: tomato late blight; spray 17 h after inoculation; tested at 40 ppm
[6] = compounds without asterisk (not 40 or 10 ppm)

Row | Compound | Test F disease rating (100 = 100% disease control, 0 = no disease control) [1] [%] | Test A disease rating (100 = 100% disease control, 0 = no disease control) [2] [%] | Test C disease rating (100 = 100% disease control, 0 = no disease control) (Phytophthora infestans [3]; [6]) [%] | Test B disease rating (100 = 100% disease control, 0 = no disease control) (Plasmopara viticola; [6]) [%] | Test E disease rating (100 = 100% disease control, 0 = no disease control) [4, 6] [%] | Test D disease rating (100 = 100% disease control, 0 = no disease control) (Phytophthora infestans [5]) [%] | Test C disease rating (100 = 100% disease control, 0 = no disease control) (Phytophthora infestans [3]; tested at 40 ppm) [%] | Test B disease rating (100 = 100% disease control, 0 = no disease control) (Plasmopara viticola; tested at 40 ppm) [%] | Test E disease rating (100 = 100% disease control, 0 = no disease control) ([4]; tested at 40 ppm) [%]
1 | 2-[1-[(2,5-dimethylphenyl)acetyl]-4-piperidinyl]-N-methyl-N-[(1R)-1-phenylpropyl]-4-oxazolecarboxamide [Compound 154] | 95 | 0 | 0 | 20 | 0 |  |  |  | 
2 | 2-[1-[(3,5-diethyl-1H-pyrazol-1-yl)acetyl]-4-piperidinyl]-N-methyl-N-[(1R)-1,2,3,4-tetrahydro-1-naphthalenyl]-4-thiazolecarboxamide [Compound 209] | 99 | 100 | 98 | 76 | 0 |  |  |  | 
3 | 2-[1-[[5-ethyl-3-(trifluoromethyl)-1H-pyrazol-1-yl]acetyl]-4-piperidinyl]-N-methyl-N-[(1R)-1,2,3,4-tetrahydro-1-naphthalenyl]-4-thiazolecarboxamide [Compound 208] | 99 | 100 | 100 | 95 | 0 |  |  |  | 
4 | Cc1ccccc1CC(=O)N1CCC(c2nc(C(=O)N(C)[C@H](C)c3ccccc3)cs2)CC1 [Compound 11] | 97 | 0 | 91 | 31 | 0 |  |  |  | 
5 | Cc1cc(C(F)(F)F)nn1CC(=O)N1CCC(c2nc(C(=O)N(C)C3c4ccccc4CCC3(C)C)cs2)CC1 (stereo not shown) [Compound 236] |  | 97 | 62 | 61 | 0 | 99 | 100 | 100 | 0
6 | C[C@H](c1ccccc1)N(C)C(=O)c1csc(C2CCN(C(=O)Cc3ccc(F)c(Cl)c3)CC2)n1 [compound 35] | 97 | 88 | 93 | 66 | 0 |  |  |  | 
7 | Cc1cccc(CC(=O)N2CCC(c3nc(C(=O)N(C)[C@H](C)c4ccccc4)cs3)CC2)c1 [compound 36] | 95 | 100 | 100 | 99 | 91 |  |  |  | 
8 | C[C@H](c1ccccc1)N(C)C(=O)c1csc(C2CCN(C(=O)Cc3ccc(F)c(F)c3)CC2)n1 [compound 38] | 43 | 0 | 0 | 45 | 55 |  |  |  | 
9 | C[C@H](c1ccccc1)N(C)C(=O)c1csc(C2CCN(C(=O)Cc3cc(C(F)(F)F)ccc3Cl)CC2)n1 [compound 39] | 100 | 100 | 100 | 100 | 85 |  |  |  | 
10 | COc1ccccc1CC(=O)N1CCC(c2nc(C(=O)N(C)[C@H](C)c3ccccc3)cs2)CC1 [compound 41] | 82 | 100 | 100 | 94 | 0 |  |  |  | 
11 | C[C@H](c1ccccc1)N(C)C(=O)c1csc(C2CCN(C(=O)Cc3cc(F)ccc3F)CC2)n1 [compound 44] | 0 | 97 | 98 | 57 | 21 |  |  |  | 
12 | Cc1ccc(C)c(CC(=O)N2CCC(c3nc(C(=O)N(C)[C@H](C)c4ccccc4)cs3)CC2)c1 [compound 47] | 100 | 100 | 100 | 100 | 96 |  |  |  | 
13 | C[C@H](c1ccccc1)N(C)C(=O)c1csc(C2CCN(C(=O)Nc3cccc(C(F)(F)F)c3)CC2)n1 [compound 156] | 100 | 100 | 62 |  | 21 |  |  |  | 
14 | N-methyl-2-[1-[[5-methyl-3-(trifluoromethyl)-1H-pyrazol-1-yl]acetyl]-4-piperidinyl]-N-[(1R)-1-phenylpropyl]-4-oxazolecarboxamide [Compound 152] |  | 0 | 0 | 0 | 0 |  |  |  | 
15 | N-methyl-2-[1-[[5-methyl-3-(trifluoromethyl)-1H-pyrazol-1-yl]acetyl]-4-piperidinyl]-N-[(1R,2S)-1,2,3,4-tetrahydro-2-methyl-1-naphthalenyl]-4-thiazolecarboxamide [Compound 234] |  | 100 | 100 | 100 | 21 | 99 | 100 | 100 | 0
16 | N-methyl-2-[1-[[5-methyl-3-(trifluoromethyl)-1H-pyrazol-1-yl]acetyl]-4-piperidinyl]-N-[(1R,4R)-1,2,3,4-tetrahydro-4-hydroxy-1-naphthalenyl]-4-thiazolecarboxamide [Compound 206] |  | 99 | 31 | 5 | 0 |  |  |  | 
17 | N-methyl-2-[1-[[5-methyl-3-(trifluoromethyl)-1H-pyrazol-1-yl]acetyl]-4-piperidinyl]-N-[(1R,4S)-1,2,3,4-tetrahydro-4-hydroxy-1-naphthalenyl]-4-thiazolecarboxamide [Compound 191] |  | 97 | 90 | 17 | 0 |  |  |  | 
18 | N-methyl-2-[4-[[5-methyl-3-(trifluoromethyl)-1H-pyrazol-1-yl]acetyl]-1-piperazinyl]-N-[(1R)-1,2,3,4-tetrahydro-1-naphthalenyl]-4-thiazolecarboxamide [Compound 220] |  | 0 | 0 | 0 | 0 |  |  |  | 
